In data set [1] the test system is Mus musculus. The data set is described as follows: Protective activity against LPS induced sepsis in BALB/c mouse model of acute liver injury assessed as reduction in ALP level in serum at 1.25 to 5 mg/kg, IG administered once a day for 3 days followed by LPS stimulation for 12 hrs starting from 2 hrs post last dose by ELISA. The following applies: dose 1.25-5 mg/kg, time 86.0 hrs. It counts as functional, organism-based.

Data set [2] can be described thus: AUC(0 to t) in Sprague-Dawley rat administered intragastrically. It counts as ADME. The following applies: in vivo, po. More on the design: route ig.
Data set [3] relates to Mus musculus. As to the kind of experiment: Anti-sepsis activity against BALB/c mouse model of LPS induced sepsis assessed as reduction in STING protein expression in liver at 1.25 to 5 mg/kg, IG administered once a day for 3 days followed by LPS stimulation for 12 hrs starting from 2 hrs post last dose by Western blot analysis. It counts as functional, organism-based. The following applies: dose 1.25-5 mg/kg, time 86.0 hrs. On the technique in general: A western blot detects proteins with antibodies after separation by electrophoresis.

Data set [4] concerns the target T1, Stimulator of interferon genes protein (Mus musculus) (UniProt Q3TBT3).
T1 sequence (whole entry): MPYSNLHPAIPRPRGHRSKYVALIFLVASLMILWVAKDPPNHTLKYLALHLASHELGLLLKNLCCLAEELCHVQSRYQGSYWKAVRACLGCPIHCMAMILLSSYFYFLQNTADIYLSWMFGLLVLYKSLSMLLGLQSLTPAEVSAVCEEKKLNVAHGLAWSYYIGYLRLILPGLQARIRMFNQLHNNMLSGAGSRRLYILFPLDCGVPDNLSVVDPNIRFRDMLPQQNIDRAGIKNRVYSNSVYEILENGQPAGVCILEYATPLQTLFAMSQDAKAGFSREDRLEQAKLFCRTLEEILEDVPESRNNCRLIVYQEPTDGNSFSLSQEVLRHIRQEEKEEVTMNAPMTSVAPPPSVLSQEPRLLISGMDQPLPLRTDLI
The data set is described as follows: In vivo inhibition of STING in BALB/c mouse model of LPS induced sepsis assessed as inhibition of upregulation of phosphorylated IkappaB protein expression at 1.25 to 5 mg/kg, IG administered once a day for 3 days followed by LPS stimulation for 12 hrs starting from 2 hrs post last dose by Western blot analysis. It is filed as functional, organism-based. The following applies: dose 1.25-5 mg/kg, time 86.0 hrs.

Data set [5] deals with RAW264.7. As to the kind of experiment: Anti inflammatory activity in LPS-induced mouse RAW264.7 cells assessed as inhibition of NO production preincubated with compound for 2 hrs followed by LPS stimulation and measured after 24 hrs by griess reagent based assay. It is filed as functional, cell-based.
Data set [6] relates to Mus musculus. The data set is described as follows: Protective activity against LPS induced sepsis in BALB/c mouse model of acute liver injury assessed as improvement in swollen hepatocytes at 1.25 to 5 mg/kg, IG administered once a day for 3 days followed by LPS stimulation for 12 hrs starting from 2 hrs post last dose by hematoxylin and eosin staining based analysis. The settings on record: dose 1.25-5 mg/kg, time 86.0 hrs. It counts as functional, organism-based.

In data set [7] the test system is RAW264.7. As to the kind of experiment: Inhibition of STING protein expression in LPS-induced mouse RAW264.7 cells preincubated with compound for 2 hrs followed by LPS stimulation and measured after 6 hrs by Western blot analysis. The settings on record: dose 0.5-2 µM, time 8.0 hrs. It counts as functional, cell-based.
In data set [8] the test system is Mus musculus. The data set is described as follows: Protective activity against LPS induced sepsis in BALB/c mouse model of acute liver injury assessed as reduction in inflammatory cell infiltration at 1.25 to 5 mg/kg, IG administered once a day for 3 days followed by LPS stimulation for 12 hrs starting from 2 hrs post last dose by hematoxylin and eosin staining based analysis. It is filed as functional, organism-based. The settings on record: dose 1.25-5 mg/kg, time 86.0 hrs.

Data set [9] is described as follows: Cytotoxicity against mouse RAW264.7 cells assessed as cell viability at 40 uM measured after 24 hrs by MTT assay relative to control. It counts as toxicity, cell-based. The settings on record: read-out: Activity.
Data set [10] has as its system RAW264.7. As to the kind of experiment: Anti inflammatory activity in LPS-induced mouse RAW264.7 cells assessed as suppression of IL-6 levels at 0.5 to 2 uM preincubated with compound for 2 hrs followed by LPS stimulation for 6 hrs by ELISA method. It counts as functional, cell-based. The following applies: dose 0.5-2 µM, time 8.0 hrs.
The subject of data set [11] is Mus musculus. As to the kind of experiment: Protective activity against LPS induced sepsis in BALB/c mouse model of acute liver injury assessed as reduction in AST level in serum at 1.25 to 5 mg/kg, IG administered once a day for 3 days followed by LPS stimulation for 12 hrs starting from 2 hrs post last dose by ELISA. It is filed as functional, organism-based. The settings on record: dose 1.25-5 mg/kg, time 86.0 hrs. Background: An ELISA detects its analyte on a solid surface through an enzyme-linked reagent.

Data set [12] has as its system RAW264.7. The data set is described as follows: Anti inflammatory activity in LPS-induced mouse RAW264.7 cells assessed as suppression of TNF-alpha levels at 0.5 to 2 uM preincubated with compound for 2 hrs followed by LPS stimulation for 6 hrs by ELISA method. It is filed as functional, cell-based. The following applies: dose 0.5-2 µM, time 8.0 hrs.
In data set [13] the test system is Mus musculus. The data set is described as follows: Antiinflammatory activity in BALB/c mouse model of LPS induced sepsis assessed as inhibition of IFN-beta production at 1.25 to 5 mg/kg, IG administered once a day for 3 days followed by LPS stimulation for 12 hrs starting from 2 hrs post last dose by qRT-PCR analysis. It is filed as functional, organism-based. The settings on record: dose 1.25-5 mg/kg, time 86.0 hrs. (In general: Real-time PCR tracks product formation cycle by cycle.)

The subject of data set [14] is Mus musculus. The data set is described as follows: Protective activity against LPS induced sepsis in BALB/c mouse model of acute liver injury assessed as reduction in necrotic hepatocytes at 1.25 to 5 mg/kg, IG administered once a day for 3 days followed by LPS stimulation for 12 hrs starting from 2 hrs post last dose by hematoxylin and eosin staining based analysis. It counts as functional, organism-based. The settings on record: dose 1.25-5 mg/kg, time 86.0 hrs.

Data set [15] concerns Mus musculus. As to the kind of experiment: Protective activity against LPS induced sepsis in BALB/c mouse model of acute liver injury assessed as reduction in ALT level in serum at 1.25 to 5 mg/kg, IG administered once a day for 3 days followed by LPS stimulation for 12 hrs starting from 2 hrs post last dose by ELISA. It counts as functional, organism-based. The following applies: dose 1.25-5 mg/kg, time 86.0 hrs.

Data set [16] is described as follows: Half life in Sprague-Dawley rat administered intragastrically. It counts as ADME. The settings on record: in vivo, po, route ig.
Data set [17] has as its target T2, Interferon regulatory factor 3 (Mus musculus) (UniProt P70671).
T2 sequence (whole entry): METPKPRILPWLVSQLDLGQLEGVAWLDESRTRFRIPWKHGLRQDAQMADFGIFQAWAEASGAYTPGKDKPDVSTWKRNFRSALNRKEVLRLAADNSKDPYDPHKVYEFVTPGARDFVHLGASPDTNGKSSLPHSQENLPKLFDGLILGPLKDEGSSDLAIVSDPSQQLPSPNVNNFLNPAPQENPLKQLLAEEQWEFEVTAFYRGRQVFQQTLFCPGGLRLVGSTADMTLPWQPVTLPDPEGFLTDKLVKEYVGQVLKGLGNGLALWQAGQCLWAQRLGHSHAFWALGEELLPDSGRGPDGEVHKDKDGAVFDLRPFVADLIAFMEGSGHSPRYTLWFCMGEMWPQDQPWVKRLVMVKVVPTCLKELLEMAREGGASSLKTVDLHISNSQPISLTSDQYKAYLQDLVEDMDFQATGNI
As to the kind of experiment: Inhibition of IRF3 phosphorylation in LPS-induced mouse RAW264.7 cells preincubated with compound for 2 hrs followed by LPS stimulation and measured after 6 hrs by Western blot analysis. It is filed as cell-based. The following applies: dose 0.5-2 µM, time 8.0 hrs.

Data set [18] concerns the target T1, Stimulator of interferon genes protein (Mus musculus). The data set is described as follows: In vivo inhibition of STING in BALB/c mouse model of LPS induced sepsis assessed as inhibition of upregulation of phosphorylated IRF3 protein expression at 1.25 to 5 mg/kg, IG administered once a day for 3 days followed by LPS stimulation for 12 hrs starting from 2 hrs post last dose by Western blot analysis. It is filed as functional, organism-based. The settings on record: dose 1.25-5 mg/kg, time 86.0 hrs.

The test system of data set [19] is Mus musculus. As to the kind of experiment: Protective activity against LPS induced sepsis in BALB/c mouse model of acute liver injury assessed as improvement of disorderly arranged liver tissue at 1.25 to 5 mg/kg, IG administered once a day for 3 days followed by LPS stimulation for 12 hrs starting from 2 hrs post last dose by hematoxylin and eosin staining based analysis. It is filed as functional, organism-based. The settings on record: dose 1.25-5 mg/kg, time 86.0 hrs.

Data set [20] in a line: MRT (0 to t) in Sprague-Dawley rat administered intragastrically. It is filed as ADME. The settings on record: in vivo, po, route ig.
Data set [21] addresses T1, Stimulator of interferon genes protein (Mus musculus). The data set is described as follows: Binding affinity to STING in mouse RAW264.7 cells assessed as thermal stabilization at 40 to 61 degree C at 20 uM incubated for 8 hrs by cellular thermal shift assay. It is filed as cell-based.

The source of these data is ChEMBL document CHEMBL5247586, “Discovery of fusidic acid derivatives as novel STING inhibitors for treatment of sepsis” (Eur J Med Chem, 2022).

The source made the active and inactive calls. The rule behind the calls is not given here.

For orientation: AUC(0-t) means exposure summed from dosing to a finite time, without extrapolation to infinity. Low values mean less exposure, high ones more exposure. The IC50 is the midpoint of a concentration-inhibition curve. In general, half-life refers to how long it takes for the measured level to halve. A higher half-life goes with slow loss. As a reminder, the MRT last is the average time that molecules of a dose stay in the body. In the case of `C=CCONC(=O)CCSSCCC(=O)O[C@@H]1CC[C@@]2(C)[C@@H](CC[C@@]3(C)[C@H]2[C@H](O)C[C@H]2/C(=C(\CCC=C(C)C)C(=O)OCc4ccccc4)[C@@H](OC(C)=O)C[C@@]23C)[C@@H]1C`, the result in the data set with Mus musculus [1], in the data set on Mus musculus [3], in the data set on Mus musculus [6], in the data set with Mus musculus [8], in the data set with RAW264.7 [10] and in the data set on Mus musculus [11] was Active. Besides, the outcome (in the data set with RAW264.7 [12]; with Mus musculus [14]; with Mus musculus [15]; in the data set with Mus musculus [19]; in data set [21]) was Active. The compound further had an AUC(0-t) in data set [2] of 81.1 ng·h/mL. Besides, the inhibition entry (in [4]; in the data set on Mus musculus [13]; in data set [18]) was “Active” each time. Further, the IC50 in the data set with RAW264.7 [5] worked out at 1.15 µM. For the same compound, the inhibition entry (with RAW264.7 [7]; in [17]) was “Dose-Dependent Effect” in each case. In addition, in data set [9], the viability at 24 h, 40 µM is 91.1%. Moreover, in data set [16], the half-life was 1.11 h. Moreover, the MRT last in [20] amounted to 0.99 h.
